In article PMC7785020, “A unique hormonal recognition feature of the human glucagon-like peptide-2 receptor” (Cell Research, 2020):
Residue numbers refer to the chain shown, from its start.

Columns and labels:
GLP-2R H268^3.37A = molecular target: T1, GLP-2R H268^3.37A (Homo sapiens, UniProt O95838, H268A); assay: radioligand competition binding, H268^3.37A; design: WT (1–553); expressed in transfected cells; settings: COS-7, H268^3.37A; [^125I]GLP-2(1–33, M10Y) 10–15 pM, 4 h, 4 °C; mean ± SEM, n ≥ 3 in duplicate
T1 sequence (O95838 1-553 H268A): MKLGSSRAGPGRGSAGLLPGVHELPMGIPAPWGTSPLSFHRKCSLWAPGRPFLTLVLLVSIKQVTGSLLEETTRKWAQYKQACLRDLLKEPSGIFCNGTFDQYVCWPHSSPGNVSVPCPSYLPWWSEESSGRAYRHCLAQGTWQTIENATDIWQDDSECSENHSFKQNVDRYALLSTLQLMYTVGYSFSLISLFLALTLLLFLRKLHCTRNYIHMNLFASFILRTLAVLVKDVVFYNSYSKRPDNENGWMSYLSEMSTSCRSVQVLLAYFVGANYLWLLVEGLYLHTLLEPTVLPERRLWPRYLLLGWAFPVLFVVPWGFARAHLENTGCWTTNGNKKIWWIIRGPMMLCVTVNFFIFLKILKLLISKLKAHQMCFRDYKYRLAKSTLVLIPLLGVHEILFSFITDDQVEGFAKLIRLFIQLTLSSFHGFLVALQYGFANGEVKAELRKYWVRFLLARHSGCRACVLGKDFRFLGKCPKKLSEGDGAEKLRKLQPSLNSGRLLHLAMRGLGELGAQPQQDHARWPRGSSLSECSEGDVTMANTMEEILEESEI
Procedure: (§1) A stepwise oxidation reaction was performed by addition of 6 aliquots of 5 µL ChloramineT (30 µL/mL) with a 1-min interval during constant stirring. The reaction was terminated by the addition of 400 µL phase A (0.1% trifluoracetic acid) before being fractionated into 1 mL volume by reverse-phase high-performance liquid chromatography (RP-HPLC, Waters 600 SimiPrep system) on a C18 column. The iodinated protein was […] by increasing concentrations of phase B (Acetonitrile + 0.1% TFA) and tested for competitive binding ability.
(§2) One day before transfection, the COS-7 cells were seeded in 75 cm^2 culture flasks (3 million cells/flask) in DMEM, containing 3.9 g/L NaHCO3 and supplemented with 10% FBS, 1% L-glutamine, 180 units/mL penicillin and 45 µg/mL streptomycin. After an overnight culture at 37 °C, 10% CO2 and 95% air humidity, the cells were transiently transfected with different GLP-2R constructs or pcDNA3.1 vector as previously described.[52] Following 24-h incubation, the cells were transferred to Costa® microtiter plates (150,000 cells/well, PerkinElmer) to achieve a 5%–10% specific binding. […] The cells were then washed twice in binding buffer (4 °C), lysed and counted for radioactivity using a Wallac Gamma Counter (PerkinElmer).

GLP-2R R344^5.40A = molecular target: T2, GLP-2R R344^5.40A (Homo sapiens, UniProt O95838, R344A); assay: radioligand competition binding, R344^5.40A; design: WT (1–553); expressed in transfected cells; host or cells: COS-7; settings: COS-7, R344^5.40A; [^125I]GLP-2(1–33, M10Y) 10–15 pM, 4 h, 4 °C; mean ± SEM, n ≥ 3 in duplicate
T2 sequence (O95838 1-553 R344A): T1 sequence (O95838 1-553 H268A) with A268H, R344A
Procedure: as §1, §2

GLP-2R K414^7.35A = molecular target: T3, GLP-2R K414^7.35A (Homo sapiens, UniProt O95838, K414A); assay: radioligand competition binding, K414^7.35A; design: WT (1–553); expressed in transfected cells; host or cells: COS-7; settings: COS-7, K414^7.35 A; [^125I]GLP-2(1–33, M10Y) 10–15 pM, 4 h, 4 °C; mean ± SEM, n ≥ 3 in duplicate
T3 sequence (O95838 1-553 K414A): T1 sequence (O95838 1-553 H268A) with A268H, K414A
Procedure: as §1, §2

SMILES	% Binding of WT (GLP-2R H268^3.37A)	% Binding of WT (GLP-2R R344^5.40A)	% Binding of WT (GLP-2R K414^7.35A)
CC[C@H](C)[C@H](NC(=O)[C@H](Cc1ccccc1)NC(=O)[C@H](CC(=O)O)NC(=O)[C@H](CCCNC(=N)N)NC(=O)[C@H](C)NC(=O)[C@H](C)NC(=O)[C@H](CC(C)C)NC(=O)[C@H](CC(N)=O)NC(=O)[C@H](CC(=O)O)NC(=O)[C@H](CC(C)C)NC(=O)[C@@H](NC(=O)[C@@H](NC(=O)[C@H](CC(N)=O)NC(=O)[C@H](CCSC)NC(=O)[C@H](CCC(=O)O)NC(=O)[C@H](CC(=O)O)NC(=O)[C@H](CO)NC(=O)[C@H](Cc1ccccc1)NC(=O)[C@H](CO)NC(=O)CNC(=O)[C@H](CC(=O)O)NC(=O)[C@H](C)NC(=O)[C@@H](N)Cc1c[nH]cn1)[C@@H](C)O)[C@@H](C)CC)C(=O)N[C@@H](CC(N)=O)C(=O)N[C@@H](Cc1c[nH]c2ccccc12)C(=O)N[C@@H](CC(C)C)C(=O)N[C@H](C(=O)N[C@@H](CCC(N)=O)C(=O)N[C@H](C(=O)N[C@@H](CCCCN)C(=O)N[C@H](C(=O)N[C@H](C(=O)N[C@@H](CC(=O)O)C(=O)O)[C@@H](C)O)[C@@H](C)CC)[C@@H](C)O)[C@@H](C)CC [Human GLP-2 (1–33)]	2.1 ± 0.8 %	5.0 ± 0.8 %	15.2 ± 1.0 %
CC[C@H](C)[C@H](NC(=O)[C@H](Cc1ccccc1)NC(=O)[C@H](CC(=O)O)NC(=O)[C@H](CCCNC(=N)N)NC(=O)[C@H](C)NC(=O)[C@H](C)NC(=O)[C@H](CC(C)C)NC(=O)[C@H](CC(N)=O)NC(=O)[C@H](CC(=O)O)NC(=O)[C@H](CC(C)C)NC(=O)[C@@H](NC(=O)[C@@H](NC(=O)[C@H](CC(N)=O)NC(=O)[C@H](CCSC)NC(=O)[C@H](CCC(=O)O)NC(=O)[C@H](CC(=O)O)NC(=O)[C@H](CO)NC(=O)[C@H](Cc1ccccc1)NC(=O)[C@H](CO)NC(=O)CNC(=O)[C@H](CC(=O)O)NC(=O)CNC(=O)[C@@H](N)Cc1c[nH]cn1)[C@@H](C)O)[C@@H](C)CC)C(=O)N[C@@H](CC(N)=O)C(=O)N[C@@H](Cc1c[nH]c2ccccc12)C(=O)N[C@@H](CC(C)C)C(=O)N[C@H](C(=O)N[C@@H](CCC(N)=O)C(=O)N[C@H](C(=O)N[C@@H](CCCCN)C(=O)N[C@H](C(=O)N[C@H](C(=O)N[C@@H](CC(=O)O)C(=O)O)[C@@H](C)O)[C@@H](C)CC)[C@@H](C)O)[C@@H](C)CC [Teduglutide]	0.7 ± 1.8 %	3.5 ± 0.8 %	13.9 ± 0.8 %
